Source: patent publication US20070197590A1, “SUBSTITUTED DIPIPERIDINE CCR2 ANTAGONISTS” (priority 2006, published 2007)
Read-outs that look alike come from different tables or passages of the source.

Columns and labels:
[1] = test system: MCP-1 induced calcium ion influx in THP-1 cells; experiment: MCP-1 Induced Calcium Mobilization in THP-1 Cells; format: cell-based; details: for IC50: 0.2 μM MCP-1, FLIPR, read-out: Inhibition of MCP-1 Induced Calcium Ion Influx IC50; for inhibition at 25 µM: THP-1, test concentration of 25 μM, given where an IC50 value was not obtained, read-out: Inhibition of MCP-1 Induced Calcium Ion Influx, percent inhibition
Procedure: THP-1 cells were plated at a density of 8×10^5 cells/mL (100 μL/well) into poly-D lysine coated clear bottom, black 96 well plates. The cells were loaded with 5 μM fluo-3 for 45 minutes. The fluo-3 washed off and cells were incubated with varying concentrations of test compound for 15 minutes. The change in calcium ion concentration upon addition of 0.2 μM MCP-1 was determined using FLIPR and compared to vehicle.
Table 2 lists IC50 values for inhibition of MCP-1 induced influx of calcium ions.

CCR2 = target: T1, CCR2 (Homo sapiens, UniProt P41597); experiment: MCP-1 Receptor Binding Assay in THP-1 Cells; details: for IC50: THP-1 cells, 0.5 nM 125I labeled MCP-1, 2 hours at 30° C., read-out: Inhibition of MCP-1 Binding IC50; for inhibition at 25 µM: test concentration of 25 μM, given where an IC50 value was not obtained, read-out: Inhibition of MCP-1 Binding, percent inhibition
T1 construct: host or cells: THP-1 cells
T1 sequence (P41597 1-360 isoform P41597-2): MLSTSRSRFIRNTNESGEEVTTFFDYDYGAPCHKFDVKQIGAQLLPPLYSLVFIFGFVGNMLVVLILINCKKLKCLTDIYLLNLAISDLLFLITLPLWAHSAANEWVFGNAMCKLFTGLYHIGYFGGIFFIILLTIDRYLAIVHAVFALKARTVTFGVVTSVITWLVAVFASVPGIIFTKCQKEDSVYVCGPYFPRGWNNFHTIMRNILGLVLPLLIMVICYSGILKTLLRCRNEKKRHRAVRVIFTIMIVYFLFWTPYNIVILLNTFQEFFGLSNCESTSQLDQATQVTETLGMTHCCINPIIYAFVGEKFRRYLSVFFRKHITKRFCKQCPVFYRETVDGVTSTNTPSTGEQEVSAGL
Procedure: THP-1 cells were obtained from American Type Culture Collection (Manassas, Va., USA). The THP-1 cells were grown in RPMI-1640 supplemented with 10% fetal bovine serum in a humidified 5% CO2 atmosphere at 37° C. The cell density was maintained […].
THP-1 cells were incubated with 0.5 nM ^125, labeled MCP-1 (Perkin-Elmer Life Sciences, Inc. Boston, Mass.) in the presence of varying concentrations of either unlabeled MCP-1 (R & D Systems, Minneapolis, Minn.) or test compound for 2 hours at 30° C. in a 96 well plate. Cells were then harvested onto a filter plate, dried, and 20 μL of Microscint 20 was added to each well. Plates were counted in a TopCount NXT, Microplate Scintillation & Luminescence Counter (Perkin-Elmer Life Sciences, Inc. Boston, Mass.). Blank values (buffer only) were subtracted from all values and drug treated values were compared to vehicle treated values. 1 μM cold MCP-1 was used for nonspecific binding.
Table 1 lists IC50 values for inhibition of MCP-1 binding to CCR2 obtained for test compounds of the invention.

[2] = Homo sapiens, THP-1, THP-1 cells

| Compound | IC50 (CCR2) | IC50 [1, 2] | also measured |
| --- | --- | --- | --- |
| 4-hydroxy-4-{1-hydroxy-2-hydroxy-2-[4-(1H-indol-3-yl)-piperidin-1-yl]-ethyl}-piperidine-1-carboxylic acid (3,5-difluoro-phenyl)-amide [Compound 81] | 2600 nM | – | IC50 ([1]; THP-1 cells): 1800 nM |
| COc1ccc(C2CCN(CC(CO)C3CCN(C(=O)/C=C/c4cccc(C)c4)CC3)CC2)cc1 (centres unmarked) [Compound 42] | 2200 nM | 3700 nM | – |
| COc1ccc(C2CCN(CC(CO)C3CCN(C(=O)Nc4ccc(Cl)c(Cl)c4)CC3)CC2)cc1 (centres unmarked) [Compound 44, 4-{1-hydroxymethyl-2-[4-(4-methoxy-phenyl)-piperidin-1-yl]-ethyl}-piperidine-1-carboxylic acid (3,4-dichloro-phenyl)-amide] | 1800 nM | 720 nM | – |
| O=C(Nc1ccc(Cl)c(Cl)c1)N1CCC(CC(CO)N2CCC(c3c[nH]c4ccccc34)CC2)CC1 (centres unmarked) [Compound 58, 4-{3-hydroxy-2-[4-(1H-indol-3-yl)-piperidin-1-yl]-propyl}-piperidine-1-carboxylic acid (3,4-dichloro-phenyl)-amide] | 5000 nM | – | inhibition at 25 µM ([1]; Homo sapiens): 42% |
| O=C(Nc1ccc(F)c(F)c1)N1CCC(O)(C(O)CN2CCC(c3c[nH]c4ccccc34)CC2)CC1 (centres unmarked) [Compound 82, 4-hydroxy-4-{1-hydroxy-2-[4-(1H-indol-3-yl)-piperidin-1-yl]-ethyl}-piperidine-1-carboxylic acid (3,4-difluoro-phenyl)-amide] | 1300 nM | 2600 nM | – |
| COc1ccc(C2CCN(CC(O)C3(O)CCN(C(=O)/C=C/c4cccc(C)c4)CC3)CC2)cc1 (centres unmarked) [Compound 95] | 1400 nM | – | inhibition at 25 µM ([1]; Homo sapiens): 53% |
| COc1ccc(C2CCN(CC(O)C3CCN(C(=S)Nc4cccc(OC)c4)CC3)CC2)cc1 (centres unmarked) [Compound 96, 4-{1-hydroxy-2-[4-(4-methoxy-phenyl)-piperidin-1-yl]-ethyl}-piperidine-1-carbothioic acid (3-methoxy-phenyl)-amide] | – | – | IC50 ([1]; THP-1 cells): 13100 nM |
| COc1ccc(C2CCN(CC(O)C3CCN(C(=S)Nc4cccc(C(F)(F)F)c4)CC3)CC2)cc1 (centres unmarked) [Compound 97, 4-{1-hydroxy-2-[4-(4-methoxy-phenyl)-piperidin-1-yl]-ethyl}-piperidine-1-carbothioic acid (3-trifluoromethyl-phenyl)-amide] | – | – | IC50 ([1]; THP-1 cells): 12900 nM |
| COc1ccc(C2CCN(CC(O)C3CCN(C(=S)Nc4ccc(Cl)c(Cl)c4)CC3)CC2)cc1 (centres unmarked) [Compound 98, 4-{1-hydroxy-2-[4-(4-methoxy-phenyl)-piperidin-1-yl]-ethyl}-piperidine-1-carbothioic acid (3,4-dichloro-phenyl)-amide] | – | 800 nM | – |
| COc1ccc(C2CCN(CC(O)C3CCN(C(=S)Nc4ccc(Br)c(F)c4)CC3)CC2)cc1 (centres unmarked) [Compound 99, 4-{1-hydroxy-2-[4-(4-methoxy-phenyl)-piperidin-1-yl]-ethyl}-piperidine-1-carbothioic acid (4-bromo-3-fluoro-phenyl)-amide] | – | 3500 nM | – |
| O=C(CCc1ccc(Cl)c(Cl)c1)N1CCC(O)(C(O)CN2CCC(c3c[nH]c4ccc(F)cc34)CC2)CC1 (centres unmarked) [Compound 168, 3-(3,4-dichloro-phenyl)-1-(4-{2-[4-(5-fluoro-1H-indol-3-yl)-piperidin-1-yl]-1-hydroxy-ethyl}-4-hydroxy-piperidin-1-yl)-propan-1-one] | 2700 nM | – | – |
| O=C(Cc1cccc([N+](=O)[O-])c1)N1CCC(O)(C(O)CN2CCC(c3c[nH]c4ccc(N5CCOCC5)cc34)CC2)CC1 (centres unmarked) [Compound 176, 1-(4-hydroxy-4-{1-hydroxy-2-[4-(5-morpholin-4-yl-1H-indol-3-yl)-piperidin-1-yl]-ethyl}-piperidin-1-yl)-2-(3-nitro-phenyl)-ethanone] | – | – | inhibition at 25 µM (CCR2): 42% |
| O=C(Nc1ccc(F)c(F)c1)N1CCC(O)(C(O)CN2CCC(c3c[nH]c4ccc(N5CCOCC5)cc34)CC2)CC1 (centres unmarked) [Compound 179, 4-hydroxy-4-{1-hydroxy-2-[4-(5-morpholin-4 yl-1H-indol-3-yl)-piperidin-1-yl]-ethyl}-piperidine-1-carboxylic acid (3,4-difluoro-phenyl)-amide] | 5800 nM | – | – |
| O=C(Nc1cc(F)cc(C(F)(F)F)c1)N1CCC(O)(C(O)CN2CCC(c3c[nH]c4ccc(N5CCOCC5)cc34)CC2)CC1 (centres unmarked) [Compound 180, 4-hydroxy-4-{1-hydroxy-2-[4-(5-morpholin-4-yl-1H-indol-3-yl)-piperidin-1-yl]-ethyl}-piperidine-1-carboxylic acid (3-fluoro-5-trifluoromethyl-phenyl)-amide] | 4200 nM | – | – |
| OC(CN1CCC(c2c[nH]c3ccc(N4CCOCC4)cc23)CC1)C1(O)CCN(C(=S)Nc2cc(F)cc(F)c2)CC1 (centres unmarked) [Compound 183, 4-hydroxy-4-{1-hydroxy-2-[4-(5-morpholin-4-yl-1H-indol-3-yl)-piperidin-1-yl]-ethyl}-piperidine-1-carbothioic acid (3,5-difluoro-phenyl)-amide] | – | – | inhibition at 25 µM (CCR2): 47% |
| CC(=O)Nc1ccc2[nH]cc(C3CCN(CC(O)C4CCNCC4)CC3)c2c1 (centres unmarked) [Compound 185, N-{3-[1-(2-hydroxy-2-piperidin-4-yl-ethyl)-piperidin-4-yl]-1H-indol-5-yl}-acetamide] | – | – | inhibition at 25 µM (CCR2): 54% |

More lines, in order of falling IC50 (CCR2), values ahead:

| IC50 (CCR2) | IC50 [1, 2] | Compound | also measured |
| --- | --- | --- | --- |
| 810 nM | 7400 nM | O=C(/C=C/c1ccsc1)N1CCC(O)(C(O)CN2CCC(c3c[nH]c4ccccc34)CC2)CC1 (centres unmarked) [Compound 79] | – |
| 550 nM | 30 nM | OC(CN1CCC(c2c[nH]c3ccccc23)CC1)C1(O)CCN(C(=S)Nc2ccc(Cl)c(Cl)c2)CC1 (centres unmarked) [Compound 84, 4-hydroxy-4-{1-hydroxy-2-[4-(1H-indol-3-yl)-piperidin-1-yl]-ethyl}-piperidine-1-carbothioic acid (3,4-dichloro-phenyl)-amide] | – |
| 550 nM | 1800 nM | COc1ccc(C2CCN(CC(O)C3CCN(C(=S)Nc4cc(Cl)cc(Cl)c4)CC3)CC2)cc1 (centres unmarked) [Compound 89, 4-{1-hydroxy-2-[4-(4-methoxy-phenyl)-piperidin-1-yl]-ethyl}-piperidine-1-carbothioic acid (3,5-dichloro-phenyl)-amide] | – |
| 540 nM | – | COc1ccc(C2CCN(CC(O)C3CCN(C(=S)Nc4cccc(C(F)(F)F)c4)CC3)CC2)cc1 (centres unmarked) [Compound 105, 4-{1-hydroxy-2-[4-(4-methoxy-phenyl)-piperidin-1-yl]-ethyl}-piperidine-1-carbothioic acid (3-trifluoromethyl-phenyl)-amide] | IC50 ([1]; THP-1 cells): 3400 nM |
| 500 nM | 85 nM | O=C(/C=C/c1cccc(C(F)(F)F)c1)N1CCC(O)(C(O)CN2CCC(c3c[nH]c4ccccc34)CC2)CC1 (centres unmarked) [Compound 77] | – |
| 500 nM | – | COc1ccc(C2CCN(CC(O)C3CCN(C(=S)Nc4cccc(OC)c4)CC3)CC2)cc1 (centres unmarked) [Compound 103, 4-{1-hydroxy-2-[4-(4-methoxy-phenyl)-piperidin-1-yl]-ethyl}-piperidine-1-carbothioic acid (3-methoxy-phenyl)-amide] | IC50 ([1]; THP-1 cells): 2200 nM |
| 480 nM | 2500 nM | COc1ccc(C2CCN(CC(O)C3CCN(C(=S)Nc4cccc(Cl)c4)CC3)CC2)cc1 (centres unmarked) [Compound 102, 4-{1-hydroxy-2-[4-(4-methoxy-phenyl)-piperidin-1-yl]-ethyl}-piperidine-1-carbothioic acid (3-chloro-phenyl)-amide] | – |
| 470 nM | 165 nM | O=C(/C=C/c1cccc(F)c1)N1CCC(O)(C(O)CN2CCC(c3c[nH]c4ccccc34)CC2)CC1 (centres unmarked) [Compound 76] | – |
| 470 nM | 3300 nM | O=C(/C=C/c1cc(F)c(F)c(F)c1)N1CCC(O)(C(O)CN2CCC(c3nc4ccccc4[nH]3)CC2)CC1 (centres unmarked) [Compound 87] | – |
| 420 nM | 1100 nM | COc1ccc(C2CCN(CC(NC(C)=O)C3CCN(C(=O)C=Cc4cc(F)c(F)c(F)c4)CC3)CC2)cc1 (centres unmarked) [Compound 66, N-(2-[4-(4-methoxy-phenyl)-piperidin-1-yl]-1-{1-[3-(3,4,5-trifluoro-phenyl)-acryloyl]-piperidin-4-yl}-ethyl)-acetamide] | – |
| 40 nM | 200 nM | O=C(/C=C/c1cc(F)cc(F)c1)N1CCC(O)(C(O)CN2CCC(c3c[nH]c4ccccc34)CC2)CC1 (centres unmarked) [Compound 71] | – |
